{"source": "patent US11980667B2", "about": "“Short TAT oligomers for drug delivery” (The Trustees of Columbia University in the City of New York, priority 2017, dated 2024)", "key": {"9L-Luc gliosarcoma cells": {"test_system": "9L-Luc gliosarcoma cells", "experiment": "In vitro cytotoxicity (BrdU and bioluminescence assays)", "type": "cell-based", "conditions": "1-100 μM, 1-hour exposure, viability at 24 hours", "experimental": "In vitro cytotoxicity studies and uptake analysis. […] 9L luciferase-expressing (9L-Luc) gliosarcoma cells (provided by Dr. Brian Ross University of Michigan, Ann Arbor) were incubated in a 96 well plate and grown to 95% confluence. 9L-Luc cells were cultured in Delbecco's Modified Eagle Medium (DMEM) with fetal bovine serum (10%), streptomycin ([…]) and penicillin (100 U/ml) and 1-glutamine 2 mM in an atmosphere 95/5% O2 and CO2 with 100% humidity. They were exposed to 1, 10, and 100 μM of the compound for 1-hour and assessed for viability at 24 hours. Data for all three assays was normalized to the survival of untreated cells. Assays were run in triplicate and fluorescence values were averaged for each treatment. The 3% hydrogen peroxide treated cells provided positive controls."}, "9L cells": {"test_system": "9L cells", "conditions": "one hour exposure, MTT and BrdU assays after 7 days", "experimental": "Cytotoxicity Study. 9L cells were grown to confluence in 96-well plates. Individual wells were exposed to no treatment or increasing concentrations of melphalan, TAT monomer, melphalan-conjugated TAT monomer (obtained from a supplier) or melphalan-conjugated TAT dimer (obtained from a supplier). Cells were incubated under these conditions for one hour. Growth factors were then reintroduced and the cells were grown for a week with standard periodic care. After 7 days, MTT and BrdU assays were used to assess cell viability. All tests were done in quadruplicate and data normalized to the untreated group. […] IV injection of the […]"}, "9L-gliosarcoma cells": {"test_system": "9L-gliosarcoma cells", "experiment": "Membrane fluidity with beta-cyclodextrin cholesterol depletion", "type": "cell-based", "conditions": "4° C. and 37° C., FIG. 33C", "experimental": "9L-gliosarcoma cells were grown to confluence in T-75 in recommended culture media. Membrane fluidity was determined by using commercially available “Gene Marker” kit. Fluorescein tagged TAT was used for determining uptake of the cell penetrating peptide. To alter membrane fluidity TAT uptake was determined at different temperatures of 4° C., 15° C. 25° C., 35° C. and 37° C.\nThe role of cholesterol in affecting membrane fluidity was then assessed. Cholesterol content of the membrane was measured using the commercially available Fillipin-III assay. Beta-cyclodextrin was used to deplete membrane cholesterol. The effect of cyclodextrin on TAT uptake of 100 μL at 0.1 mg/mL for 10 minutes at different temperatures was then assessed. Fluorescence was assessed by flow cytometry and confocal imaging was performed as needed."}, "9L glioma tumor": {"test_system": "9L glioma tumor", "experiment": "In vivo uptake of TAT dimer versus monomer by IA-TCH (MSI and confocal imaging)", "design": "species or system rat", "conditions": "dimer 0.25 mg, monomer 0.125 mg, five rats each", "experimental": "An additional experiment was performed to assess the in vivo uptake of fluorescein-labeled TAT dimer by IA-TCH. About 14 days after 9L glioma tumor implantation, rats were anesthetized and prepared for TAT dimer delivery experiments. TAT dimer was conjugated with fluorescein such that its concentrations in post mortem samples could be determined immediately by multispectral imaging and confocal imaging. TAT dimer (0.25 mg) and monomer (0.125 mg) were tested using IA-TCH delivery both containing equal amounts of fluorescein were evaluated. […] Animals were sacrificed 15 minutes after TAT injection. Brain tissue was harvested."}, "9L glioma": {"test_system": "9L glioma", "experiment": "Survival after IA-TCH delivery of melphalan or melphalan-conjugated TAT", "type": "in vivo, rat", "conditions": "for Bleeding events: IA-TCH", "experimental": "Thirteen 9L glioma-implanted anesthetized rats were intubated and ventilated. The carotid artery of each rat was exposed and cannulated but the ICA was not isolated to minimize surgical trauma. The rats were subjected to delivery of melphalan with adenosine, esmolol and cold saline via IA-TCH. Six rats received 0.25 mg of melphalan, three rats received 0.5 mg melphalan and one rat received 1 mg of melphalan. Remaining rats were either treated with saline or left untreated. After the IA-TCH injection, rats were allowed to recover and sacrificed when pre-determined criteria were met.\nA similar procedure was performed on seven 9L glioma-implanted rats using melphalan-conjugated TAT monomer at a dose of 1 mg (0.16 mg melphalan content). However, the ICA was isolated with an aneurysm clip. Survival of the rats was monitored and images of the brains of the rats were obtained by MRI. The same procedure was performed using 5 rats with melphalan-conjugated TAT dimer at a dose of 1 mg (0.08 mg melphalan content)."}, "[1]": {"experiment": "Delivery of cell-penetrating peptides to the brain of healthy rats, confocal microscopy", "type": "in vivo, rat", "conditions": "rat, in vivo", "text": "Animal preparation, IA-TCH injection, and brain tumor implantation. Animal protocols were approved by the Columbia University Institutional Animal Care and Use Committee (IACUC). Studies were primarily conducted on Sprague-Dawley rats weighing 250 to 300 grams. In the case of electron multiplying charge-coupled device imaging studies, Fisher 344 rats implanted with 9L brain tumors were utilized. The surgical preparation including anesthesia, carotid and femoral cannulation, cerebral blood flow and vital sign monitoring, as well as in vivo fluorescence imaging have been previously described in detail.\nIA injections of cell-penetrating peptides (CPPs) were made during TCH as 65 μL pulses totaling 1 ml in volume. TCH was produced by a bolus injection of adenosine, esmolol, and cold saline. Animals were allowed to hemodynamically recover from TCH and euthanized 10 minutes after injection. Uptake of CPPs was assessed with a fluorescence camera and with confocal fluorescence microscopy.\nCell-penetrating peptides. Two experimental cell-penetrating peptides were tested: 1. octaarginine, also called (Arg)8 or R-8 (SEQ ID NO: 13) and 2. trans-activator of transcription or TAT (Lifetien Inc.). The 14 amino acid peptide sequence for TAT is […]COOH (SEQ ID NO: 11). Both cell-penetrating peptides (CPPs) were labeled with fluorescein so that their distribution could be identified by multispectral imaging and with fluorescence microscopy of the frozen brain sections.\nFluorescence and electron multiplying charge-coupled device imaging."}}, "note": "Where a SMILES comes first, the peptide text is derived from it. Where no end group is shown, it is not given here. [ ]: non-standard residue; d: D form. The star is where a group is joined. Phe(4-N(CH2CH2Cl)2) = N[C@@H](Cc1ccc(N(CCCl)CCCl)cc1)C(=O)O; 5FAM = O=C1OC2(c3ccc(O)cc3Oc3cc(O)ccc32)c2ccc(C(=O)*)cc21"}
{"molecule": "COc1cccc2c1C(=O)c1c(O)c3c(c(O)c1C2=O)C[C@@](O)(C(=O)CO)C[C@@H]3O[C@H]1C[C@H](N)[C@H](O)[C@H](C)O1", "note": "[Dox, Doxorubicin]", "values": [{"measurement": "Relative toxicity (cellular viability)", "setting": "9L-Luc gliosarcoma cells", "result": "highest toxicity"}]}
{"molecule": "N=C(N)NCCC[C@H](NC(=O)CN)C(=O)N[C@@H](CCCCN)C(=O)N[C@@H](CCCCN)C(=O)N[C@@H](CCCNC(=N)N)C(=O)N[C@@H](CCCNC(=N)N)C(=O)N[C@@H](CCC(N)=O)C(=O)N[C@@H](CCCNC(=N)N)C(=O)N[C@@H](CCCNC(=N)N)C(=O)N[C@@H](CCCNC(=N)N)C(=O)N1CCC[C@H]1C(=O)N1CCC[C@H]1C(=O)N[C@@H](CCC(N)=O)C(=O)N[C@@H](CCC(N)=O)C(=O)O", "note": "[TAT monomer]", "values": [{"measurement": "Relative cytotoxicity (cell viability)", "setting": "9L cells", "result": "cytotoxicity increases from TAT monomer to melphalan-conjugated TAT monomer to melphalan-conjugated TAT dimer to melphalan alone"}]}
{"molecule": "OC[C@H]1O[C@@H]2O[C@H]3[C@H](O)[C@@H](O)[C@@H](O[C@H]4[C@H](O)[C@@H](O)[C@@H](O[C@H]5[C@H](O)[C@@H](O)[C@@H](O[C@H]6[C@H](O)[C@@H](O)[C@@H](O[C@H]7[C@H](O)[C@@H](O)[C@@H](O[C@H]8[C@H](O)[C@@H](O)[C@@H](O[C@H]1[C@H](O)[C@H]2O)O[C@@H]8CO)O[C@@H]7CO)O[C@@H]6CO)O[C@@H]5CO)O[C@@H]4CO)O[C@@H]3CO", "note": "[beta-cyclodextrin]", "values": [{"measurement": "Effect on membrane fluidity", "setting": "9L-gliosarcoma cells", "result": "increased fluidity at higher temperatures (37° C.) than at lower temperature (4° C.) in a dose-dependent manner"}]}
{"molecule": "N=C(N)NCCC[C@H](NC(=O)CNC(=O)[C@H](CCC(N)=O)NC(=O)[C@H](CCC(N)=O)NC(=O)[C@@H]1CCCN1C(=O)[C@@H]1CCCN1C(=O)[C@H](CCCNC(=N)N)NC(=O)[C@H](CCCNC(=N)N)NC(=O)[C@H](CCCNC(=N)N)NC(=O)[C@H](CCC(N)=O)NC(=O)[C@H](CCCNC(=N)N)NC(=O)[C@H](CCCNC(=N)N)NC(=O)[C@H](CCCCN)NC(=O)[C@H](CCCCN)NC(=O)[C@H](CCCNC(=N)N)NC(=O)CNC(=O)c1ccc2c(c1)C(=O)OC21c2ccc(O)cc2Oc2cc(O)ccc21)C(=O)N[C@@H](CCCCN)C(=O)N[C@@H](CCCCN)C(=O)N[C@@H](CCCNC(=N)N)C(=O)N[C@@H](CCCNC(=N)N)C(=O)N[C@@H](CCC(N)=O)C(=O)N[C@@H](CCCNC(=N)N)C(=O)N[C@@H](CCCNC(=N)N)C(=O)N[C@@H](CCCNC(=N)N)C(=O)N1CCC[C@H]1C(=O)N1CCC[C@H]1C(=O)N[C@@H](CCC(N)=O)C(=O)N[C@@H](CCC(N)=O)C(=O)O", "note": "[fluorescein-labeled TAT dimer, 5-FAM-GRKKRRQRRR PPQQGRKKRR QRRRPPQQ-COOH] (5FAM-GRKKRRQRRRPPQQGRKKRRQRRRPPQQ-OH)", "values": [{"measurement": "Tumor selective delivery", "setting": "9L glioma tumor", "result": "able to achieve tumor selective drug delivery"}]}
{"molecule": "N[C@@H](Cc1ccc(N(CCCl)CCCl)cc1)C(=O)O", "note": "[melphalan, Melphalan, reference compound]", "values": [{"measurement": "Relative cytotoxicity (cell viability)", "setting": "9L cells", "result": "cytotoxicity increases from TAT monomer to melphalan-conjugated TAT monomer to melphalan-conjugated TAT dimer to melphalan alone"}, {"measurement": "Dose group with peak survival", "setting": "9L glioma; 0.25, 0.5, 1 mg IA-TCH", "result": "peak survival was found in the 0.25 mg melphalan group"}, {"measurement": "Bleeding events", "setting": "9L glioma", "result": "significant bleeding"}, {"measurement": "Survival", "setting": "9L glioma; melphalan 0.25, 0.5 or 1 mg IA-TCH, p=0.07 versus controls", "result": "30 ± 8", "unit": "days"}]}
{"molecule": "N=C(N)NCCC[C@H](NC(=O)CNC(=O)[C@H](CCC(N)=O)NC(=O)[C@H](CCC(N)=O)NC(=O)[C@@H]1CCCN1C(=O)[C@@H]1CCCN1C(=O)[C@H](CCCNC(=N)N)NC(=O)[C@H](CCCNC(=N)N)NC(=O)[C@H](CCCNC(=N)N)NC(=O)[C@H](CCC(N)=O)NC(=O)[C@H](CCCNC(=N)N)NC(=O)[C@H](CCCNC(=N)N)NC(=O)[C@H](CCCCN)NC(=O)[C@H](CCCCN)NC(=O)[C@H](CCCNC(=N)N)NC(=O)CNC(=O)[C@@H](N)Cc1ccc(N(CCCl)CCCl)cc1)C(=O)N[C@@H](CCCCN)C(=O)N[C@@H](CCCCN)C(=O)N[C@@H](CCCNC(=N)N)C(=O)N[C@@H](CCCNC(=N)N)C(=O)N[C@@H](CCC(N)=O)C(=O)N[C@@H](CCCNC(=N)N)C(=O)N[C@@H](CCCNC(=N)N)C(=O)N[C@@H](CCCNC(=N)N)C(=O)N1CCC[C@H]1C(=O)N1CCC[C@H]1C(=O)N[C@@H](CCC(N)=O)C(=O)N[C@@H](CCC(N)=O)C(=O)O", "note": "[melphalan-conjugated TAT dimer] (H-[Phe(4-N(CH2CH2Cl)2)]GRKKRRQRRRPPQQGRKKRRQRRRPPQQ-OH)", "values": [{"measurement": "Relative cytotoxicity (cell viability)", "setting": "9L cells", "result": "cytotoxicity increases from TAT monomer to melphalan-conjugated TAT monomer to melphalan-conjugated TAT dimer to melphalan alone"}, {"measurement": "Bleeding events", "setting": "9L glioma", "result": "No significant bleeding events"}]}
{"molecule": "N=C(N)NCCC[C@H](NC(=O)CNC(=O)[C@@H](N)Cc1ccc(N(CCCl)CCCl)cc1)C(=O)N[C@@H](CCCCN)C(=O)N[C@@H](CCCCN)C(=O)N[C@@H](CCCNC(=N)N)C(=O)N[C@@H](CCCNC(=N)N)C(=O)N[C@@H](CCC(N)=O)C(=O)N[C@@H](CCCNC(=N)N)C(=O)N[C@@H](CCCNC(=N)N)C(=O)N[C@@H](CCCNC(=N)N)C(=O)N1CCC[C@H]1C(=O)N1CCC[C@H]1C(=O)N[C@@H](CCC(N)=O)C(=O)N[C@@H](CCC(N)=O)C(=O)O", "note": "[melphalan-conjugated TAT monomer]", "values": [{"measurement": "Relative cytotoxicity (cell viability)", "setting": "9L cells", "result": "cytotoxicity increases from TAT monomer to melphalan-conjugated TAT monomer to melphalan-conjugated TAT dimer to melphalan alone"}, {"measurement": "Tolerability", "setting": "9L glioma; 1 mg IA-TCH", "result": "well tolerated"}, {"measurement": "Bleeding events", "setting": "9L glioma", "result": "Only one of seven animals showed some evidence of a tail bleed"}]}
{"molecule": "octaarginine (RRRRRRRR; also: FITC label, position not given here) [FITC labeled R8, reference compound]", "values": [{"measurement": "Deposition by hemisphere", "setting": "[1]", "result": "detectable deposition preferentially to the hemisphere ipsilateral to carotid injection"}, {"measurement": "Distribution in the brain (semi-quantitative)", "setting": "[1]", "result": "more discrete and predominantly within vessel walls"}]}
